The source of these data is patent publication US8754073B2, “Substituted piperazino-dihydrothienopyrimidines” (Boehringer Ingelheim International GmbH, priority 2007, dated 2014).

The structures appear in SMILES notation.

For orientation: inhibition means the share of the control response that was lost under treatment. Lower therefore signals a weak effect.

Sequence of PDE4B (Q07343 whole entry, species assumed): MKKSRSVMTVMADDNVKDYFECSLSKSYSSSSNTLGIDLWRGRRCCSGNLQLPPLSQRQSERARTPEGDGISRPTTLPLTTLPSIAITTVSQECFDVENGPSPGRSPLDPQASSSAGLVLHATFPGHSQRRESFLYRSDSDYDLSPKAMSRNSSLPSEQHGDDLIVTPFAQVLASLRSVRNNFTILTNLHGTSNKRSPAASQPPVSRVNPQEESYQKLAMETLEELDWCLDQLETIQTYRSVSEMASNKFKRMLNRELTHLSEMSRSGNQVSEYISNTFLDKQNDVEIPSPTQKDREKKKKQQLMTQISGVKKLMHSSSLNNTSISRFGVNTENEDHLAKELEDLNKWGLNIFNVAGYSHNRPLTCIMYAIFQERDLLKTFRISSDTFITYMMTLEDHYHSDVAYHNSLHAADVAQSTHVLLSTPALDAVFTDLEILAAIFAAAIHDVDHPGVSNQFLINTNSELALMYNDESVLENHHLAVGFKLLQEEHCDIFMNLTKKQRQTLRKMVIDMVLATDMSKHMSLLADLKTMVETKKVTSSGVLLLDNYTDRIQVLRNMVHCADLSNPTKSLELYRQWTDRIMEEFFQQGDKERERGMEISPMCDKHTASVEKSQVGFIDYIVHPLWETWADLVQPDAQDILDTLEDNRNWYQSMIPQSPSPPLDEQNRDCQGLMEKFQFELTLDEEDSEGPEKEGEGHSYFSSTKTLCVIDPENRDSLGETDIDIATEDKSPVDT

One test deals with PDE4B (Homo sapiens, UniProt Q07343). Briefly: Scintillation Proximity Assay (SPA) of PDE4B enzyme activity ([H3]-cAMP cleavage). The test is classed as biochemical. Conditions: test substance 1 μM; one-hour incubation of [H3]-cAMP with PDE4B enzyme at 30° C. The procedure:
The inhibitions (in %) at 1 μM of the individual Example substances are given in the following Table of Examples and were determined as follows:
The Scintillation Proximity Assay (SPA) (GE Healthcare, No. TRKQ7090) was carried out by using the different affinities of cyclic 3′-5′-adenosinemonophosphate (cAMP, low affinity) and linear 5′-adenosinemonophosphate (AMP, high affinity) for yttrium silicate scintillator beads. The cAMP specific phosphodiesterase (PDE) PDE4B cleaves the 3′-phosphoester bond of tritium-labelled [H3]-cAMP to form [H3]-5′-AMP. This [H3]-AMP accumulates on the scintillator beads because of its higher affinity for them and causes scintillation events (flashes of light) which are measured in a Wallac Microbeta Scintillation Counter.
The experiment starts with a one-hour incubation of [H3]-cAMP with the PDE4B enzyme in assay buffer at 30° C., in each case once with the Example substance to be tested (in a concentration of 1 μM) and once without the Example substance to be tested.
After this incubation, the reaction is stopped by the addition of the beads. The beads have an opportunity to settle in the next 45 minutes, then the measurement is carried out in the Scintillation Counter. If the substance is capable of inhibiting the enzymatic activity of the PDE4B, less [H3]-AMP is produced during the incubation phase and fewer scintillation events can be measured.
Background: SPA uses beads or plates that emit light when radiolabelled molecules are held near them.
In turn, `CN1C[C@@H](Nc2nc(N3CCC4(CC3)c3ccccc3NC(=O)N4C)nc3c2[S+]([O-])CC3)CCC1=O` (stereo partly drawn) [Example 43, (S)-3′-Methyl-1-(4-(1-Methyl-6-Oxopiperidin-3-Ylamino)-5-Oxo-6,7-Dihydro-5H-5λ^4-Thieno[3,2-d]Pyrimidin-2-YL)-3′-Methyl-1′H-Spiro[Piperidin-4,4′-Quinazolin]-2′(3′H)-One] registered an inhibition at 1 µM of 95%.
Still for that read-out and setting: next, `Cc1cccc(C2CCN(c3nc4c(c(NC5(CO)CC5)n3)[S+]([O-])CC4)CC2)c1` (stereo not shown) [Example 8]: 93%; `Cc1noc(C2CCN(c3nc4c(c(N[C@@H](CO)C(C)C)n3)[S+]([O-])CC4)CC2)n1` (stereo partly shown) [Example 23]: 85%; `[O-][S+]1CCc2nc(N3CCC(c4cc5ccccc5o4)CC3)nc(NC3CCOCC3)c21` (stereo not shown) [Example 126]: 96%.
`[O-][S+]1CCc2nc(N3CCC(c4ccc5ccccc5c4)CC3)nc(NC3(CO)CC3)c21` (stereo not shown) [Example 111] yielded an inhibition at 1 µM of 96%.
`CC(C)[C@H](CO)Nc1nc(N2CCC(c3nc4cc(Cl)ccc4s3)CC2)nc2c1[S+]([O-])CC2` (stereo partly shown) [Example 149] yielded an inhibition at 1 µM of 94%.
The compound `CS(=O)(=O)N1CC2(CCN(c3nc4c(c(NC5(CO)CC5)n3)[S+]([O-])CC4)CC2)c2ccccc21` (stereo not shown) [Example 30] yielded an inhibition at 1 µM of 89%.

The same test, now with this note: test substance 1 μM; one-hour incubation with [H3]-cAMP at 30° C.
`[O-][S+]1CCc2nc(N3CCC(c4nc(-c5ccccc5)no4)CC3)nc(NC3CCOCC3)c21` (stereo not shown) [Example 312] returned an inhibition at 1 µM of 92%.
With `N[C@@H]1CC1Nc1nc(N2CCC(c3ccc(Cl)cc3)CC2)nc2c1[S+]([O-])CC2` (stereo partly shown) [Example 245, N-{2-[4-(4-Chlorophenyl)-Piperidin-1-Yl]-5-Oxo-6,7-Dihydro-5H-5λ^4-Thieno[3,2-d]Pyrimidin-4-Yl}-Cyclopropan-1,2-Diamine], the inhibition at 1 µM turned out to be 68%.
Compound `N#CC1(c2ccc(F)cc2)CCN(c2nc3c(c(NC4(CO)CC4)n2)[S+]([O-])CC3)CC1` (stereo not shown) [Example 295] displayed an inhibition at 1 µM of 93%.
The same measure, in the same setting: next, `CN1CCc2ccc(OC3CCN(c4nc5c(c(NC6CCOCC6)n4)[S+]([O-])CC5)CC3)cc2CC1` (stereo not shown) [Example 186, (2-[4-(3-Methyl-2,3,4,5-Tetrahydro-1H-Benzo[d]Azepin-7-Yloxy)-Piperidin-1-Yl]-5-Oxo-6,7-Dihydro-5H-5λ^4-Thieno[3,2-d]Pyrimidin-4-Yl)-(Tetrahydropyran-4-Yl)-Amine]: 96%.
Still for that read-out and setting: in the case of `CC(=O)NCC1(c2ccccc2)CCN(c2nc3c(c(N[C@H]4CCC(=O)N(C)C4)n2)[S+]([O-])CC3)CC1` (stereo partly shown) [Example 204, N-{1-[4-(1-methyl-6-oxopiperidin-3-ylamino)-5-oxo-6,7-dihydro-5H-5λ^4-thieno[3,2-d]pyrimidin-2-yl]-4-phenylpiperidin-4-ylmethyl}-acetamide] it was 96%; in that of `Cc1nc(C2CCN(c3nc4c(c(NC5(CO)CC5)n3)[S+]([O-])CC4)CC2)oc1-c1ccc(Cl)cc1` (stereo not shown) [Example 283, [1-(2-{4-[5-(4-chlorophenyl)-4-methyloxazol-2-yl]-piperidin-1-yl}-5-oxo-6,7-dihydro-5H-5λ^4-thieno[3,2-d]pyrimidin-4-ylamino)-cyclopropyl]-methanol], 89%.
On the same count and under the same terms, next, `CC(C)[C@H](CO)Nc1nc(N2CCC(Oc3ccc(F)cc3)CC2)nc2c1[S+]([O-])CC2` (stereo partly shown) [Example 168]: 89%; `[O-][S+]1CCc2nc(N3CCC(COCc4ccccc4)(c4ccc(Cl)cc4)CC3)nc(Nc3cccc(F)c3)c21` (stereo not shown) [Example 306, {2-[4-benzyloxymethyl-4-(4-chlorophenyl)-piperidin-1-yl]-5-oxo-6,7-dihydro-5H-5λ^4-thieno[3,2-d]pyrimidin-4-yl}-(3-fluorophenyl)-amine]: 89%; `CC(C)(C)OC(=O)NC1CC1Nc1nc(N2CCC(c3ccc(Cl)cc3)CC2)nc2c1[S+]([O-])CC2` (stereo not shown) [Example 231, tert-butyl (2-{2-[4-(4-chlorophenyl)-piperidin-1-yl]-5-oxo-6,7-dihydro-5H-5λ^4-thieno[3,2-d]pyrimidin-4-ylamino}-cyclopropyl)-carbamidate]: 94%.
